Results: ChEMBL document CHEMBL4304805, “Antibacterial activity of 2-amino-4-hydroxypyrimidine-5-carboxylates and binding to Burkholderia pseudomallei 2-C-methyl-d-erythritol-2,4-cyclodiphosphate synthase” (Bioorg Med Chem Lett, 2019)
Calls of active or inactive are those of the source. No cut-off for these calls is given here.

What was measured:
[1] = molecular target: T1, 2-C-methyl-D-erythritol 2,4-cyclodiphosphate synthase (Salmonella typhimurium (strain LT2 / SGSC1412 / ATCC 700720), UniProt Q8ZMF7); experiment: Inhibition of Salmonella typhimurium IspF by malachite green dye based assay; design: species or system Salmonella enterica subsp. enterica serovar Typhimurium
T1 sequence (Q8ZMF7 whole entry): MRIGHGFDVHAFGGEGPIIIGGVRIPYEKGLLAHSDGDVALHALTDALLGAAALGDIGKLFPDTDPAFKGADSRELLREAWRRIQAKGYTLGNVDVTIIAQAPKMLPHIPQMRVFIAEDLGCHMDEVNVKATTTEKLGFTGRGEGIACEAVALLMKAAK

[2] = tested on: Burkholderia thailandensis; experiment: Antibacterial activity against Burkholderia thailandensis at 0.5 mM by Kirby Bauer disk diffusion method; type: functional; conditions: read-out: DIZ
[3] = molecular target: T2, 2-C-methyl-D-erythritol 2,4-cyclodiphosphate synthase (Burkholderia pseudomallei (strain K96243)) (UniProt Q63T71); experiment: Binding affinity to Burkholderia pseudomallei IspF by surface plasmon resonance analysis
T2 sequence (whole entry): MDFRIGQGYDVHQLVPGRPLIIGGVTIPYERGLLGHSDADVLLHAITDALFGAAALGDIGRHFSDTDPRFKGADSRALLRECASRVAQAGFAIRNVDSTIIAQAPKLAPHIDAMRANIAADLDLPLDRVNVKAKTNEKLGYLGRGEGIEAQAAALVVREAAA

Pseudomonas aeruginosa = experiment: Antibacterial activity against Pseudomonas aeruginosa at 0.5 mM by Kirby Bauer disk diffusion method; type: functional; conditions: read-out: DIZ
Klebsiella pneumoniae = experiment: Antibacterial activity against Klebsiella pneumoniae at 0.5 mM by Kirby Bauer disk diffusion method; type: functional; conditions: read-out: DIZ
Bacillus cereus = experiment: Antibacterial activity against Bacillus cereus at 0.5 mM by Kirby Bauer disk diffusion method; type: functional; conditions: read-out: DIZ
Micrococcus luteus = experiment: Antibacterial activity against Micrococcus luteus at 0.5 mM by Kirby Bauer disk diffusion method; type: functional; conditions: read-out: DIZ
Corynebacterium xerosis = experiment: Antibacterial activity against Corynebacterium xerosis at 0.5 mM by Kirby Bauer disk diffusion method; type: functional; conditions: read-out: DIZ
[4] = tested on: Mycolicibacterium smegmatis; experiment: Antibacterial activity against Mycobacterium smegmatis at 0.5 mM by Kirby Bauer disk diffusion method; type: functional; conditions: read-out: DIZ
Escherichia coli = experiment: Antibacterial activity against Escherichia coli at 0.5 mM by Kirby Bauer disk diffusion method; type: functional; conditions: read-out: DIZ
[5] = tested on: Corynebacterium pseudodiphtheriticum; experiment: Antibacterial activity against Corynebacterium pseudodiphtheriticum at 0.5 mM by Kirby Bauer disk diffusion method; type: functional; conditions: read-out: DIZ

Row | Compound | IC50 [1] | zone of inhibition at 500 µM [2] | Activity [3] | zone of inhibition at 500 µM (Pseudomonas aeruginosa) | zone of inhibition at 500 µM (Klebsiella pneumoniae) | zone of inhibition at 500 µM (Bacillus cereus) | zone of inhibition at 500 µM (Micrococcus luteus) | zone of inhibition at 500 µM (Corynebacterium xerosis) | zone of inhibition at 500 µM [4] | zone of inhibition at 500 µM (Escherichia coli) | zone of inhibition at 500 µM [5]
1 | CCOC(=O)C1=C(C)N=c2s/c(=C\c3cc(Br)c(O)c(Br)c3)c(=O)n2C1c1cccs1 (configuration not stated) | 37 µM | – | – | – | – | – | – | – | – | – | –
2 | O=C(O)c1cnc(Nc2ccc(-c3ccncc3)cc2)nc1O | 23.5 µM | 0 mm | Active | 0 mm | 0 mm | 10 mm | 0 mm | 0 mm | 0 mm | 0 mm | 0 mm
3 | O=C(O)c1cnc(NCc2cc(Cl)ccc2Cl)nc1O | – | 10 mm | – | 9 mm | 8 mm | 10 mm | 0 mm | 0 mm | 15 mm | 11 mm | 10 mm
4 | CCOC(=O)c1cnc(NCCc2ccc(Cl)c(Cl)c2)nc1O | – | 0 mm | – | 0 mm | 0 mm | 10 mm | 0 mm | 0 mm | 0 mm | 0 mm | 0 mm
5 | O=C(O)c1cnc(NCCc2ccc(Cl)c(Cl)c2)nc1O | – | 11 mm | – | 0 mm | 8 mm | 13 mm | 0 mm | 0 mm | 11 mm | 0 mm | 0 mm
6 | O=C(O)c1cnc(Nc2ccc(N3CCCCC3)cc2)nc1O | – | 11 mm | – | 0 mm | 10 mm | 12 mm | 0 mm | 0 mm | 0 mm | 11 mm | 0 mm
7 | O=C(O)c1cnc(Nc2ccc(-c3ccccc3)cc2)nc1O | – | 0 mm | – | 0 mm | 15 mm | 12 mm | 0 mm | 0 mm | 15 mm | 0 mm | 0 mm
